# From paper PMC11390765 (Cancer Chemotherapy and Pharmacology, 2024)
# Experiment: Safety and tolerability (adverse events, CTCAE v5.0; full analysis set)
# Type: in vivo, human
# Experimental: Safety and tolerability were evaluated in terms of AEs, which were classified and graded according to the National Cancer Institute (NCI) Common Terminology Criteria for Adverse Events (CTCAE) v5.0; vital signs; 12-lead electrocardiogram (ECG); and clinical laboratory assessments, including clinical chemistry and hematology parameters, urinalysis, HbA1c levels, and lipid profiles.
# Efficacy analyses were also performed on the full analysis set. Summary and/or descriptive statistics were used to analyze baseline demographic, safety, and efficacy data; PFS and DoR were estimated using Kaplan–Meier methodology.
# [1] = part B period 4, capivasertib only 400 mg BID, N=19
# [2] = period 2, days 2–7 cycle 1, capivasertib only 400 mg BID, N=21
compound,measurement,setting,value
NC1(C(=O)N[C@@H](CCO)c2ccc(Cl)cc2)CCN(c2nc[nH]c3nccc2-3)CC1 [capivasertib],QT prolongation,"ECG, whole study",no reports of QT prolongation
same,patients requiring a capivasertib dose interruption due to AEs,N = 21,66.7%
same,patients requiring a capivasertib dose reduction due to AEs,N = 21,23.8%
same,patients with AEs leading to permanent discontinuation of capivasertib,N = 21,Three
same,safety profile,administered with or without midazolam,manageable safety profile
same,"Anemia, frequency of patients overall","all treatment periods, N = 21",28.6%
same,"Diarrhea, frequency of patients overall","all treatment periods, N = 21",76.2%
same,"Fatigue, frequency of patients overall","all treatment periods, N = 21",33.3%
same,"Hyperglycemia, frequency of patients overall","all treatment periods, N = 21",28.6%
same,"Nausea, frequency of patients overall","all treatment periods, N = 21",33.3%
same,patients who experienced grade 3 AEs,"in total, N = 21",57.1%
same,patients who experienced grade ≥ 3 AEs,"in total, N = 21",66.7%
same,serious AEs (SAEs) reported in the study,"n = 1 period 2, n = 1 period 3, n = 3 part B, only one considered related to study treatment",five
same,deaths during the study,"one in part A, three in part B, none deemed possibly related to study treatment",four
same,"Abdominal pain, any grade",[1],1 (5.3) n (%)
same,"Abdominal pain, grade ≥ 3",[1],1 (5.3) n (%)
same,"Anemia, any grade",[1],4 (21.1) n (%)
same,"Anemia, grade ≥ 3",[1],0 n (%)
same,"Any AE, any grade",[1],17 (89.5) n (%)
same,"Any AE, grade ≥ 3",[1],9 (47.4) n (%)
same,"Asthenia, any grade",[1],2 (10.5) n (%)
same,"Asthenia, grade ≥ 3",[1],1 (5.3) n (%)
same,"Blood alkaline phosphatase increased, any grade",[1],0 n (%)
same,"Blood alkaline phosphatase increased, grade ≥ 3",[1],0 n (%)
same,"Blood bilirubin increased, any grade",[1],2 (10.5) n (%)
same,"Blood bilirubin increased, grade ≥ 3",[1],1 (5.3) n (%)
same,"Blood creatinine increased, any grade",[1],3 (15.8) n (%)
same,"Blood creatinine increased, grade ≥ 3",[1],0 n (%)
same,"COVID-19, any grade",[1],1 (5.3) n (%)
same,"COVID-19, grade ≥ 3",[1],1 (5.3) n (%)
same,"Decreased appetite, any grade",[1],4 (21.1) n (%)
same,"Decreased appetite, grade ≥ 3",[1],2 (10.5) n (%)
same,"Diarrhea, any grade",[1],7 (36.8) n (%)
same,"Diarrhea, grade ≥ 3",[1],1 (5.3) n (%)
same,"Fatigue, any grade",[1],4 (21.1) n (%)
same,"Fatigue, grade ≥ 3",[1],2 (10.5) n (%)
same,"Gamma-glutamyl transferase increased, any grade",[1],1 (5.3) n (%)
same,"Gamma-glutamyl transferase increased, grade ≥ 3",[1],1 (5.3) n (%)
same,"Hyperglycemia, any grade",[1],3 (15.8) n (%)
same,"Hyperglycemia, grade ≥ 3",[1],0 n (%)
same,"Hypoalbuminemia, any grade",[1],0 n (%)
same,"Hypoalbuminemia, grade ≥ 3",[1],0 n (%)
same,"Hypokalemia, any grade",[1],3 (15.8) n (%)
same,"Hypokalemia, grade ≥ 3",[1],1 (5.3) n (%)
same,"Hyponatremia, any grade",[1],3 (15.8) n (%)
same,"Hyponatremia, grade ≥ 3",[1],1 (5.3) n (%)
same,"Hypotension, any grade",[1],3 (15.8) n (%)
same,"Hypotension, grade ≥ 3",[1],1 (5.3) n (%)
same,"Large intestinal obstruction, any grade",[1],1 (5.3) n (%)
same,"Large intestinal obstruction, grade ≥ 3",[1],1 (5.3) n (%)
same,"Lymphocyte count decreased, any grade",[1],2 (10.5) n (%)
same,"Lymphocyte count decreased, grade ≥ 3",[1],0 n (%)
same,"Nausea, any grade",[1],4 (21.1) n (%)
same,"Nausea, grade ≥ 3",[1],0 n (%)
same,"Rash (group term), any grade",[1],2 (10.5) n (%)
same,"Rash (group term), grade ≥ 3",[1],0 n (%)
same,"Sepsis, any grade",[1],1 (5.3) n (%)
same,"Sepsis, grade ≥ 3",[1],1 (5.3) n (%)
same,"Thrombocytopenia, any grade",[1],0 n (%)
same,"Thrombocytopenia, grade ≥ 3",[1],0 n (%)
same,"Ureteric obstruction, any grade",[1],1 (5.3) n (%)
same,"Ureteric obstruction, grade ≥ 3",[1],1 (5.3) n (%)
same,"Urticaria, any grade",[1],0 n (%)
same,"Urticaria, grade ≥ 3",[1],0 n (%)
same,patients who experienced a grade 5 AE (sepsis),"part B, not considered related to capivasertib or midazolam",4.8%
same,"Abdominal pain, any grade",[2],1 (4.8) n (%)
same,"Abdominal pain, grade ≥ 3",[2],0 n (%)
same,"Anemia, any grade",[2],2 (9.5) n (%)
same,"Anemia, grade ≥ 3",[2],1 (4.8) n (%)
same,"Any AE, any grade",[2],10 (47.6) n (%)
same,"Any AE, grade ≥ 3",[2],3 (14.3) n (%)
same,"Asthenia, any grade",[2],1 (4.8) n (%)
same,"Asthenia, grade ≥ 3",[2],0 n (%)
same,"Blood alkaline phosphatase increased, any grade",[2],0 n (%)
same,"Blood alkaline phosphatase increased, grade ≥ 3",[2],0 n (%)
same,"Blood bilirubin increased, any grade",[2],0 n (%)
same,"Blood bilirubin increased, grade ≥ 3",[2],0 n (%)
same,"Blood creatinine increased, any grade",[2],0 n (%)
same,"Blood creatinine increased, grade ≥ 3",[2],0 n (%)
same,"COVID-19, any grade",[2],0 n (%)
same,"COVID-19, grade ≥ 3",[2],0 n (%)
same,"Decreased appetite, any grade",[2],0 n (%)
same,"Decreased appetite, grade ≥ 3",[2],0 n (%)
